How the values were obtained:
mice [1] = experiment: Locomotor activity (ultromotivity) measurement, evaluation of sedative action; type: in vivo; conditions: for Significant difference test of ultromotivity: Tukey's method; for Ultromotivity (count) 60 minutes / Significant difference test of ultromotivity: 60 minutes
Method: (§1) In the following Examples, all extracts and drugs used were dissolved in physiological saline before use for i.p. administration and the dose was 0.1 ml of physiological saline per 10 g of mouse body weight in either case. All extracts and drugs were suspended in physiological saline containing 1% carboxymethylcellulose before use for oral administration and the dose was 0.1 ml of 1% carboxymethylcellulose-containing physiological saline suspension per 10 g of mouse body weight in either case. Male ICR mice (Japan SLC) having a body weight of 25 to 30 g were used in the tests below unless otherwise stated, and were fed in advance at a room temperature of 23±1° C. and a relative humidity of 55±5% in the environment of a 12-hour-light and 12-hour-dark cycle at 7 and 19 for 3 to 5 days. The mice were allowed to have water and feed freely.
Twenty five mice were grouped into five groups each having five mice, to which 5 mg/kg of N-methylcoclaurine hydrochloride (treatment group 1-1: i.p. administration), 50 mg/kg of neferine hydrochloride (treatment group 1-2: oral administration, and treatment group 1-3: i.p. administration), 50 mg/kg of liensinine hydrochloride (treatment group 1-4: oral administration), or physiological saline (negativity control group 1-1: i.p. administration) was administered. The ultromotivity of the mice was analyzed by using a locomotor activity monitoring system (NS-AS01, Neuroscience Inc.). The ultromotivity measurements were performed at an interval of 5 minutes for 60 minutes, and the ultromotivity was judged from the count at each measuring time.
Similar tests were conducted by i.p. administration of 25 mg/kg of N-norarmepavine (treatment group 1-5, n=6), 25 mg/kg of O,O-dimethylcoclaurine (treatment group 1-6, n=5), 10 mg and 25 mg/kg of armepavine (respectively, treatment group 1-7, n=6, and treatment group 1-8, n=6), 10 mg and 25 mg/kg of O-methylarmepavine (respectively, treatment group 1-9, n=6, and treatment group 1-10, n=6), and physiological saline (negativity control group 1-2, n=5). The ultromotivity measurements were performed at an interval of five minutes for 60 minutes, and the ultromotivity was subjected to a significant difference test (Tukey's method) by using the counts at respective measuring times.
(§2) Tests were performed by using mice administered intraperitoneally with 25 mg/kg of neferine hydrochloride (treatment group 7-1, n=6), 25 mg/kg of liensinine hydrochloride (treatment group 7-2, n=6), and physiological saline (negativity control group, n=6) as well as 5 mg/kg of diazepam (positive control group, n=6) and a rotarod equipment (Ugo Basile, Italy) and a locomotor activity monitoring system (NS-ASO1, Neuroscience Inc.). The rotarod test was performed by placing a mouse on a rod having a diameter of 4 cm rotating at a speed of 8 rpm 15 minutes after drug administration and observing whether the mouse can stay on the rod without falling for three minutes. The individuals that had fallen from the rotating rod in the period of 3 minutes were judged that they are with motor coordination disorder. […] In addition, the ultromotivity measurements were performed at an interval of five minutes for 60 minutes, and the ultromotivity results were subjected to a significant difference test (Tukey's method) by using the counts at respective measuring times.

mice [2] = experiment: Rotarod test (muscle relaxation, motor coordination); type: in vivo; conditions: n=6, 8 rpm, 3 minutes, 15 minutes after administration
Method: as §1, §2

mice [3] = experiment: Thiopental sleep-enhancing test; type: in vivo; conditions: 15 minutes before thiopental 60 mg/kg i.p.
Method: as §1
Actions on thiopental sleep by various compounds were evaluated. Thiopental dissolved in physiological saline was administered intraperitoneally into mice at a dose of 60 mg/kg. 50 mg/kg of neferine hydrochloride (treatment group 2-1, n=9), 50 mg/kg of isoliensinine hydrochloride (treatment group 2-2, n=9), 100 mg/kg of lien tzehsin 2 extract hydrochloride (treatment group 2-3, n=9), only physiological saline (negativity control group, n=6), or 1 mg/kg of diazepam (positive control group, n=9) was administered intraperitoneally into the mice 15 minutes before the thiopental administration. The time when the righting reflex of the mice disappeared after thiopental administration was designated as sleep-induction time, while total sleep time was calculated from the induction time and the time when the righting reflex was restored.

mice [4] = experiment: Glass ball-covering behavior test; type: in vivo; conditions: hydrochloride, 20 balls
Method: as §1
In evaluating glass ball-covering behavior, wood chip for breeding (beta chip) (Oriental Yeast Co., Ltd.) was placed in the transparent cage described in Example 3 to a depth of 5 cm, on which 20 glass balls (diameter: 1.5 cm) were placed evenly.
Twenty-one mice were grouped into three groups of seven mice, to which 25 mg/kg of neferine hydrochloride (treatment group 6-1), 50 mg/kg of the same (treatment group 6-2), and physiological saline (negativity control group) were administered intraperitoneally, respectively. A mouse was placed in the case 15 minutes after administration, and the number of the glass balls not covered with the wood chip was counted by visual observation at an interval of 10 minutes. The number of balls having ⅔ of the surface thereof being embedded in the wood chip was counted as the criteria for judgment.

mice [5] = experiment: Elevated plus-maze test; type: in vivo; conditions: 100 mg/kg i.p., hydrochloride, 30 minutes after administration, 5 minutes
Method: In the following Examples, all extracts and drugs used were dissolved in physiological saline before use for i.p. administration and the dose was 0.1 ml of physiological saline per 10 g of mouse body weight in either case. All extracts and drugs were suspended in physiological saline containing 1% carboxymethylcellulose before use for oral administration and the dose was 0.1 ml of 1% carboxymethylcellulose-containing physiological saline suspension per 10 g of mouse body weight in either case. […]
An elevated plus-maze (Neuroscience Inc.) consisting of 2 arms without high walls and 2 arms enclosed by high walls, which were crossing perpendicular to each other, was used for evaluation. A mouse was placed on the platform at the center in a position facing toward an arm enclosed by high walls, and the number of times the mouse entered into both arms and the period of the mouse staying in the arms without walls were determined during a period of 5 minutes. The results were evaluated by the ratios of the number of the mouse entering into the arms with walls with respect to the total number of entering into both arms (%) and by the period of the mouse staying in the arms without walls (%). […]

mice [6] = experiment: Suppression of methamphetamine-enhanced ultromotivity; type: in vivo; conditions: for Ultromotivity (count): hydrochloride, methamphetamine 1 mg/kg 15 minutes later, 60 minutes
Method: as §1
The effects of neferine on suppression of the enhancement of ultromotivity by methamphetamine were evaluated.
Fifteen mice were grouped into three groups of five mice, to which 50 mg/kg of neferine hydrochloride (treatment group 3-1), 100 mg/kg of the same (treatment group 3-2), and only physiological saline (negativity control group) were administered respectively intraperitoneally. Methamphetamine (1 mg/kg) was administered 15 minutes after the administration. After administration of methamphetamine, each of the mice was placed in a transparent polycarbonate cage (22.5 cm×33.8 cm×14.0 cm), where the ultromotivity of the mouse was analyzed for 60 minutes by using a locomotor activity analyzer (NS-AS01, Neuroscience Inc.).

mice [7] = conditions: Ito et al.; cited from earlier work
[8] = Seibu et al., no specific data; cited from earlier work
mice [9] = experiment: Forced swimming test (Porsolt); type: in vivo; conditions: 100 mg/kg i.p., hydrochloride, 6-minute period
Method: as §1
Forced swimming tests were conducted according to the method of Porsolt et al. A mouse was placed in a cylindrical glass water tank of 10 cm in diameter and 25 cm in height (water temperature: 23° C.) filled with water to a depth of 10 cm and forced to swim therein. […] Each mouse was forced to swim 15 and 30 minutes after administration, and the immobile times during the 6-minute periods immediately after forced swimming were determined. […]

COc1cc2c(cc1O)[C@@H](Cc1ccc(O)cc1)N(C)CC2 [N-methylcoclaurine]
Sedative activity compared with neferine and liensinine (in words) (mice [1]; 5 mg/kg i.p. versus 50 mg/kg): extremely higher activity | Ultromotivity (count) 30 minutes (mice [1]; 5 mg/kg i.p., hydrochloride): 250 count | Ultromotivity (count) 60 minutes (mice [1]; 5 mg/kg i.p., hydrochloride): 250 count

CN1C(=O)CN=C(c2ccccc2)c2cc(Cl)ccc21 [diazepam, reference compound]
Number of individuals fallen (mice [2]; 5 mg/kg i.p.): 5 | Total sleep time (mice [3]; 1 mg/kg i.p.): 130 min | Significant difference test of ultromotivity (mice [1]; 5 mg/kg i.p.): P < 0.005

COc1ccc(C[C@@H]2c3cc(Oc4cc(C[C@@H]5c6cc(O)c(OC)cc6CCN5C)ccc4O)c(OC)cc3CCN2C)cc1 [isoliensinine]
Total sleep time (mice [3]; 50 mg/kg i.p., hydrochloride): 120 min

COc1cc2c(cc1OC)[C@@H](Cc1ccc(O)c(Oc3cc4c(cc3OC)CCN(C)[C@@H]4Cc3ccc(O)cc3)c1)N(C)CC2 [liensinine]
Number of individuals fallen (mice [2]; 25 mg/kg i.p., hydrochloride): 0 | Significant difference test of ultromotivity (mice [1]; 25 mg/kg i.p., hydrochloride): In declining | Ultromotivity (count) 30 minutes (mice [1]; 50 mg/kg oral, hydrochloride): 600 count | Ultromotivity (count) 60 minutes (mice [1]; 50 mg/kg oral, hydrochloride): 800 count

COc1ccc(C[C@@H]2c3cc(Oc4cc(C[C@@H]5c6cc(OC)c(OC)cc6CCN5C)ccc4O)c(OC)cc3CCN2C)cc1 [neferine]
Number of individuals fallen (mice [2]; 25 mg/kg i.p., hydrochloride): 0 | Number of glass balls not covered with wood chip After 10 minutes (mice [4]; 25 mg/kg i.p.): 4 | Number of glass balls not covered with wood chip After 20 minutes (mice [4]; 25 mg/kg i.p.): 7 | Number of glass balls not covered with wood chip After 30 minutes (mice [4]; 25 mg/kg i.p.): 10 | Number of glass balls not covered with wood chip After 10 minutes (mice [4]; 50 mg/kg i.p.): 3 | Number of glass balls not covered with wood chip After 20 minutes (mice [4]; 50 mg/kg i.p.): 6 | Number of glass balls not covered with wood chip After 30 minutes (mice [4]; 50 mg/kg i.p.): 9 | Staying period (%) (mice [5]; arms without walls): 33% | Invasion times (%) (mice [5]; ratio to total entries): 70% | Total sleep time (mice [3]; 50 mg/kg i.p., hydrochloride): 100 min | Ultromotivity (count) (mice [6]; 50 mg/kg i.p.): 2600 count | Ultromotivity (count) (mice [6]; 100 mg/kg i.p.): 1800 count | Action on ultromotivity enhancement by methamphetamine (in words) (mice [6]; 50 and 100 mg/kg i.p.): obvious action suppressing the ultromotivity enhancement by methamphetamine | Locomotor activity-inhibiting action (in words) (mice [7]): exhibited a locomotor activity-inhibiting action | Antihypertensive action (in words) [8]: exhibited an antihypertensive action | Significant difference test of ultromotivity (mice [1]; 25 mg/kg i.p., hydrochloride): P < 0.01 | Ultromotivity (count) 30 minutes (mice [1]; 50 mg/kg i.p., hydrochloride): 500 count | Ultromotivity (count) 60 minutes (mice [1]; 50 mg/kg i.p., hydrochloride): 760 count | Ultromotivity (count) 30 minutes (mice [1]; 50 mg/kg oral, hydrochloride): 500 count | Ultromotivity (count) 60 minutes (mice [1]; 50 mg/kg oral, hydrochloride): 750 count | Immobile time (sec) After 15 minutes (mice [9]; 15 minutes after administration): 165 s | Immobile time (sec) After 30 minutes (mice [9]; 30 minutes after administration): 170 s

Source: patent publication US20060030586A1, “Method and health food for preventing and/or alleviating psychiatric disorder, and/or for effectuating sedation” (Education Center of Traditional Chinese Medicine Co., priority 2004, published 2006)
